The text below walks through data of patent publication US20260049071A1, “PROTEIN TYROSINE KINASE INHIBITOR AND MEDICAL USE THEREOF” (BEYANG THERAPEUTICS CO., LTD., priority 2022, published 2026).

The target in data set [1] is VEGFR2 autophosphorylation (pVEGFR2) in HUVEC cells (Homo sapiens (Human), UniProt P35968). The experiment in a line: Inhibition of VEGF-induced VEGFR2 autophosphorylation in HUVEC cells (ELISA). The note with it: 50 ng/ml human VEGF, compound 1 h. Format: cell-based. From the text: Vascular endothelial growth factor receptor 2 (VEGFR2) is a primary receptor for VEGF-induced endothelial cell signaling. After ligand binding, VEGFR2 is autophosphorylated and activated. The main function of signaling from VEGFR2 is to induce vascularization during development and after tissue injury, and to bypass blocked blood vessels. Pathologically, VEGF and VEGFR2 are involved in tumor angiogenesis and vascular leakage. They are considered to be main participants in many different cancers and ocular diseases that accompany pathological neovascularization. This assay measured the ability of the compounds to inhibit VEGF-induced VEGFR2 autophosphorylation (pVEGFR2) in HUVEC cells by using ELISA.
Culture cells in a cell culture flask to reach a fusion degree of 60%-80% before cell inoculation. Dilute the cell suspension to […] with a pre-warmed complete medium. Add 80 μL of the cell suspension to all wells of a 96-well cell plate (Corning-3599); and incubate the plate overnight at 37° C. in the presence of 5% CO2. Dissolve the compound powder to 10 mM with DMSO and store it in a nitrogen cabinet. Compound dilution plate: Add a reference compound Ponatinib or a compound to be tested to a 96 V-well plate (Axygen-WIpp 2280) at concentrations achieved as follows: performing 3-fold gradient dilution starting from 5 mM (5 μL of 10 mM compound solution plus 5 μL of DMSO) for a total of 8 concentration points. […] Transfer 20 μL of the diluted compound from the intermediate plate to a cell plate. Then, incubate the cell plate for 1 h at 37° C. in the presence of 5% CO2. After the compound was treated for 1 h, add 25 μL of 250 ng/ml human VEGF at a final concentration of 50 ng/ml to a 96-well plate; and incubate the plate for 5 min at 37° C. in the presence of 5% CO2, centrifuge the plate for 10 min at 3,000 rpm, remove the medium and wash the cells once with 300 μL of pre-chilled DPBS per well. Then, centrifuge the plate for 10 min at 4,000 rpm, remove DPBS, and add 110 μL of pre-chilled 1× cell lysis buffer per well to the 96-well plate. Shake the plate for 40 min at 4° C. Then, freeze the plate in a refrigerator at −80° C. On the next day, remove the plate from the refrigerator at −80° C., thaw the plate, centrifuge the plate for 10 min at 3500 rpm, and add 100 μL of the supernatant per well to an ELISA plate. Seal the plate and incubate it for 2 h at 37° C. Wash the wells 4 times with 1× wash buffer. Add 100 μL of recombinant detection antibody per well. Seal the plate, incubate the plate for 1 h at 37° C., and repeat the step of plate washing. Add 100 μL of secondary antibody per well. Seal the plate, incubate the plate for 30 min at 37° C., and repeat the step of plate washing. Add 100 μL of TMB (protected from light) per well. Seal the plate, incubate the plate for 30 min at 37° C., and add 100 μL of the stop solution per well. Gently shake for 30 sec, measure the absorbance with a SpectraMax® 340 PC 384 Absorbance Microplate Reader within 30 min, and read an optical density value at 450 nm. Conduct data analysis using XL Fit software:
Conduct curve fitting using the 4 Parameter Logistic Model or Sigmoidal Dose-Response Model:
X indicating the log value of compound concentration, Y indicating the inhibition ratio (% inhibition), Top indicating the readout of the negative control wells, and bottom indicating the readout of the positive control well.
Background: An ELISA detects its analyte on a solid surface through an enzyme-linked reagent.

In data set [2] the target is KDR (VEGFR2) (Homo sapiens (Human), UniProt P35968). Kind of data set: Kinase inhibition, Mobility Shift Assay (VEGFR2). Type of data set: biochemical. The method, boiled down: (§1)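 Mobility shift assay: each kinase preincubated 10 min at room temperature with compound, then reacted with FAM-labeled peptide, MgCl2 and ATP at 28° C. for varying times. Substrate-to-product conversion read on Caliper; % inhibition normalised to no-kinase and DMSO controls, and IC50 fitted.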

Data set [3] has as its target EGFR (Homo sapiens (Human), UniProt P00533). Kind of data set: Kinase inhibition, Mobility Shift Assay (EGFR). Type of data set: biochemical. The method, boiled down: as §1
In data set [4] the test system is melanin. The experiment in a line: Binding capacity of compounds to melanin. The conditions noted are these: Sepia officinalis (cuttlefish), melanin suspension (1 mg/mL); 1 mg/mL melanin suspension in PBS pH 7.4, 2 μM compound, 2 h at 37° C.; read-out: Fu % (percentage of free drug, not bound to melanin). Format: in vitro ADME. In short, it runs like this: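 Compound at 2 μM final incubated with 1 mg/mL Sepia melanin suspension in PBS pH 7.4 for 2 h at 37 °C with shaking; blank control in PBS with 0.1% BSA. Supernatant concentrations measured by LC-MS/MS; bound fraction from melanin versus control samples, free fraction as 100 − Fb.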

Chain of EGFR (P00533 25-1210): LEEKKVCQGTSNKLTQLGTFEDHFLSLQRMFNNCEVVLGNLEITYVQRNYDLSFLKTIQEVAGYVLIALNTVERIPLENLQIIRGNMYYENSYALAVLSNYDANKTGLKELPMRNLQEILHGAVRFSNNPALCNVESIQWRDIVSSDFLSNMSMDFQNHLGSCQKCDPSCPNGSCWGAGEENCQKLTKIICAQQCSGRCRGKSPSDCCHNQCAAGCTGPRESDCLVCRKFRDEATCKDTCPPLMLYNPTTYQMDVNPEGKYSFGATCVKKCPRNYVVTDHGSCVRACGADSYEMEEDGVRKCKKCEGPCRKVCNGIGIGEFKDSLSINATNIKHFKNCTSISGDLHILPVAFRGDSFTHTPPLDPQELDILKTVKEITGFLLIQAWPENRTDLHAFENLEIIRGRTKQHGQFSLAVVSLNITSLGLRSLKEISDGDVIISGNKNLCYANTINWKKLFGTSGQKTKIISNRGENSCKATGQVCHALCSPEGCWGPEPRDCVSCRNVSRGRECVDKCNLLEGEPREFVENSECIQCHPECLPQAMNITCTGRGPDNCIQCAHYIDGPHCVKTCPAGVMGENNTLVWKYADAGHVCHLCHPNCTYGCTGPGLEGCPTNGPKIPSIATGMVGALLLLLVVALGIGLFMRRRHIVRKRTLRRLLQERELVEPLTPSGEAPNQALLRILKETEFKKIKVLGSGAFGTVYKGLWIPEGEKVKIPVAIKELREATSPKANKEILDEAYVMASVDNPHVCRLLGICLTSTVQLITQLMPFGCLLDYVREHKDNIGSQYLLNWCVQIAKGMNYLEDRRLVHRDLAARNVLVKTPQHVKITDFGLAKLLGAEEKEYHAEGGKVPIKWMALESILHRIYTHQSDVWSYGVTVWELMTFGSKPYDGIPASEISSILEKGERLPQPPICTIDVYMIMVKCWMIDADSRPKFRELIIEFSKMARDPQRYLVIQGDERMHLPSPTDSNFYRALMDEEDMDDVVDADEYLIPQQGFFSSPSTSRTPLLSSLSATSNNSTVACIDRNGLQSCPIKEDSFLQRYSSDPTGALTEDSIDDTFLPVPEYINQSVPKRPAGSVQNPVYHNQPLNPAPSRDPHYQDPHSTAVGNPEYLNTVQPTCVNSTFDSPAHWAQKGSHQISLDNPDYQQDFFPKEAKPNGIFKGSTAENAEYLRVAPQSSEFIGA
Chain of VEGFR2 autophosphorylation (pVEGFR2) in HUVEC cells (P35968 20-1356): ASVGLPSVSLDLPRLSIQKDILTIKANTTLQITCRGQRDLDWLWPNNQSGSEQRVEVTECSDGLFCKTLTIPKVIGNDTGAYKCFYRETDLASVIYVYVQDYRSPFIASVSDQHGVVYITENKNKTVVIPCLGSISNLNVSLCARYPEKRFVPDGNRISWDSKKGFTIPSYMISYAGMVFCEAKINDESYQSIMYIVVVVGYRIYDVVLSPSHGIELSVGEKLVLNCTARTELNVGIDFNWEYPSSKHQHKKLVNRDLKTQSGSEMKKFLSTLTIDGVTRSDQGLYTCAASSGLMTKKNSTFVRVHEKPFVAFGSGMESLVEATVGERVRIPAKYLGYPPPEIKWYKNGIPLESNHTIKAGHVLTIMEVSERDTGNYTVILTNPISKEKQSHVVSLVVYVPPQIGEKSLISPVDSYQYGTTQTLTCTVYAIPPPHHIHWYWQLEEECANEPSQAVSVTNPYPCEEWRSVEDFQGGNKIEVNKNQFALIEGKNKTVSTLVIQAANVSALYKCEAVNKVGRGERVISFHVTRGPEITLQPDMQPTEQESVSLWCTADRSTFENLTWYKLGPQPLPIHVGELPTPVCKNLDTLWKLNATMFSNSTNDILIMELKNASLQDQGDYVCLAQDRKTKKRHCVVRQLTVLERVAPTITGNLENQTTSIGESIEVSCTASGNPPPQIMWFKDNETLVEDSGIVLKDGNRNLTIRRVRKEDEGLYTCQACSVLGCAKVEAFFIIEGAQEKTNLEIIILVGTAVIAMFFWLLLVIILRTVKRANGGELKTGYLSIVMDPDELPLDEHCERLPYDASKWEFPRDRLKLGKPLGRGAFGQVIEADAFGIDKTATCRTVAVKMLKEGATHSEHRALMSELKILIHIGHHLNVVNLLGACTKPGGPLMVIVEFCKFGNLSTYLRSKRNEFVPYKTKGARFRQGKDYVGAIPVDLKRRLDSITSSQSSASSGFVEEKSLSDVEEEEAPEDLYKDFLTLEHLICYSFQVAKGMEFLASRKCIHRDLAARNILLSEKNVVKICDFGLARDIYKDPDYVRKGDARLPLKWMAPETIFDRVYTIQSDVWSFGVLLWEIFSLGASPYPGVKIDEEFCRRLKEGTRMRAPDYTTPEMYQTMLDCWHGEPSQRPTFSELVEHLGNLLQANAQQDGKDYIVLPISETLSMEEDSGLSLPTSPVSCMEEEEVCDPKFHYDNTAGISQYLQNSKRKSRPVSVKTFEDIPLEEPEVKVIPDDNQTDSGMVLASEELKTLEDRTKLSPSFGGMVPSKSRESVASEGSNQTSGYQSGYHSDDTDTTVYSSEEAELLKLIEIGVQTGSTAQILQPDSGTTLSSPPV
Chain of KDR (VEGFR2) (P35968 790-1356): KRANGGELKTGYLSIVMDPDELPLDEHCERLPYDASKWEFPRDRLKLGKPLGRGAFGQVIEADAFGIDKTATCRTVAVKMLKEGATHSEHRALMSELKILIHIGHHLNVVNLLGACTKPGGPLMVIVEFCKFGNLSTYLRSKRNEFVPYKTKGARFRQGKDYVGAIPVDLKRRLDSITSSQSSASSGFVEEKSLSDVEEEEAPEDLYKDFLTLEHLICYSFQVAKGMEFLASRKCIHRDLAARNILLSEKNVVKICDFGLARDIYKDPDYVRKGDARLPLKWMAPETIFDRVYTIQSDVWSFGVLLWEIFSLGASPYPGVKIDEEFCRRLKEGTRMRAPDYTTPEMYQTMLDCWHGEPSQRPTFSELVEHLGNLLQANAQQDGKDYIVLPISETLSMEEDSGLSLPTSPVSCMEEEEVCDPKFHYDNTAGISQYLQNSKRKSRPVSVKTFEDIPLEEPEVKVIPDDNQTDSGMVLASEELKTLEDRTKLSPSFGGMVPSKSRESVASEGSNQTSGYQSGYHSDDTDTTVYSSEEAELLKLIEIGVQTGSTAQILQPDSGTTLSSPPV

As to `CCN(CC)CCc1ccc(/C=C/c2n[nH]c3cc(Sc4ccc(F)cc4C(=O)NC4CC4)ccc23)nc1` [Compound I-109, N-cyclopropyl-2-({3-[(E)-2-{5-[2-(diethylamino)ethyl]pyridin-2-yl}vinyl]-1H-indazol-6-yl}thio)-5-fluorobenzamide], the 50% inhibitory concentration (IC50) (commonly the concentration that inhibits the measured activity by half) is 1 to 5 nM in data set [1], no more than 1 nM in data set [2] and 6000 to 60000 nM in data set [3]. Further, the fraction unbound at 2 h, 2 μM in data set [4] is greater than 0.05.
The like results for `O=C(NC1CC1)c1cc(F)ccc1Sc1ccc2c(/C=C/c3ccc(CN4CCCC4)cn3)n[nH]c2c1` [Compound I-80, N-cyclopropyl-5-fluoro-2-({3-[(E)-2-{5-[(pyrrolidin-1-yl)methyl]pyridin-2-yl}vinyl]-1H-indazol-6-yl}thio)benzamide] were, in that order, no more than 1 nM, no more than 1 nM, 6000 to 60000 nM and 0.01 to 0.05.
Turning to `CCNC(=O)c1ccccc1Sc1ccc2c(/C=C/c3ccc(CN(CC)CC)cn3)n[nH]c2c1` [Compound I-86, 2-({3-[(E)-2-{5-[(diethylamino)methyl]pyridin-2-yl}vinyl]-1H-indazol-6-yl}thio)-N-ethylbenzamide], the 50% inhibitory concentration (IC50) is no more than 1 nM in data set [1], no more than 1 nM in data set [2] and 6000 to 60000 nM in data set [3]. In data set [4], the fraction unbound at 2 h, 2 μM fell in the range of 0.01 to 0.05.
In the case of `O=C(NC1CC1)c1ccccc1Sc1ccc2c(/C=C/c3ccc(CCN4CCCC4)cn3)n[nH]c2c1` [Compound I-55, N-cyclopropyl-2-({3-[(E)-2-{5-[2-(pyrrolidin-1-yl)ethyl]pyridin-2-yl}vinyl]-1H-indazol-6-yl}thio)benzamide], the half-inhibitory concentration (IC50) was no more than 1 nM in data set [1], no more than 1 nM in data set [2] and 6000 to 60000 nM in data set [3]. Moreover, in data set [4], the fraction unbound at 2 h, 2 μM was in the range of 0.01 to 0.05.
`CCN(CC)Cc1ccc(/C=C/c2n[nH]c3cc(Sc4ccc(F)cc4C(=O)NC4CC4)ccc23)nc1` [Compound I-84, N-cyclopropyl-2-({3-[(E)-2-{5-[(diethylamino)methyl]pyridin-2-yl}vinyl]-1H-indazol-6-yl}thio)-5-fluorobenzamide]: the IC50 is no more than 1 nM in data set [1], 1 to 10 nM in data set [2] and 6000 to 60000 nM in data set [3]. Also, the fraction unbound at 2 h, 2 μM in data set [4] was greater than 0.05.
For `O=C(NC1CC1)c1ccccc1Sc1ccc2c(/C=C/c3cnn(CCN4CCCC4)c3)n[nH]c2c1` [Compound I-61, N-cyclopropyl-2-({3-[(E)-2-{1-[2-(pyrrolidin-1-yl)ethyl]-1H-pyrazol-4-yl}vinyl]-1H-indazol-6-yl}thio)benzamide], in that order: no more than 1 nM, 1 to 10 nM, 6000 to 60000 nM and 0.01 to 0.05.
For `CN1CCC(CCOc2ccc(/C=C/c3n[nH]c4cc(Sc5ccccc5C(=O)NC5CC5)ccc34)nc2)CC1` [Compound I-42, N-cyclopropyl-2-({3-[(E)-2-{5-[2-(1-methylpiperidin-4-yl)ethoxy]pyridin-2-yl}vinyl]-1H-indazol-6-yl}thio)benzamide], in that order: no more than 1 nM, no more than 1 nM, greater than 60000 nM and 0.01 to 0.05.
For `CCN(CC)Cc1ccc(/C=C/c2n[nH]c3cc(Sc4ccccc4C(=O)NC4CC4)ccc23)nc1` [Compound I-78, N-cyclopropyl-2-({3-[(E)-2-{5-[(diethylamino)methyl]pyridin-2-yl}vinyl]-1H-indazol-6-yl}thio)benzamide], in that order: no more than 1 nM, no more than 1 nM, 6000 to 60000 nM and 0.01 to 0.05.
As to `CCNC(=O)c1cc(F)ccc1Sc1ccc2c(/C=C/c3cnn(CCCN4CCCC4)c3)n[nH]c2c1` [Compound I-104, N-ethyl-5-fluoro-2-({3-[(E)-2-{1-[3-(pyrrolidin-1-yl)propyl]-1H-pyrazol-4-yl}vinyl]-1H-indazol-6-yl}thio)benzamide], the results for the IC50 in data set [1], in data set [2] and in data set [3] were no more than 1 nM, no more than 1 nM and greater than 60000 nM, respectively. Besides, the fraction unbound at 2 h, 2 μM in data set [4] was greater than 0.05.
In the case of `CCN(CC)Cc1ccc(/C=C/c2n[nH]c3cc(Sc4ccccc4C(=O)NC)ccc23)nc1` [Compound I-90, 2-({3-[(E)-2-{5-[(diethylamino)methyl]pyridin-2-yl}vinyl]-1H-indazol-6-yl}thio)-N-methylbenzamide], the IC50 was no more than 1 nM in data set [1], 1 to 10 nM in data set [2] and 6000 to 60000 nM in data set [3]. Moreover, in data set [4], the fraction unbound at 2 h, 2 μM fell in the range of 0.01 to 0.05.
For `O=C(NC1CC1)c1ccccc1Sc1ccc2c(/C=C/c3ccc(CN4CCCC4)cn3)n[nH]c2c1` [Compound I-41, N-cyclopropyl-2-({3-[(E)-2-{5-[(pyrrolidin-1-yl)methyl]pyridin-2-yl}vinyl]-1H-indazol-6-yl}thio)benzamide], in that order: no more than 1 nM, no more than 1 nM, 6000 to 60000 nM and greater than 0.05.
For `O=C(NC1CC1)c1cccc(F)c1Sc1ccc2c(/C=C/c3ccc(CN4CCCC4)cn3)n[nH]c2c1` [Compound I-67], in that order: no more than 1 nM, 1 to 10 nM, 6000 to 60000 nM and greater than 0.05.
For `CCN(CC)Cc1ccc(/C=C/c2n[nH]c3cc(Sc4cc(F)ccc4C(=O)NC4CC4)ccc23)nc1` [Compound I-83, N-cyclopropyl-2-({3-[(E)-2-{5-[(diethylamino)methyl]pyridin-2-yl}vinyl]-1H-indazol-6-yl}thio)-4-fluorobenzamide], in that order: no more than 1 nM, no more than 1 nM, 6000 to 60000 nM and greater than 0.05.
Regarding `CCN(CC)Cc1ccc(/C=C/c2n[nH]c3cc(Sc4ccccc4C(=O)NCC(F)(F)F)ccc23)nc1` [Compound I-100, 2-({3-[(E)-2-{5-[(diethylamino)methyl]pyridin-2-yl}vinyl]-1H-indazol-6-yl}thio)-N-(2,2,2-trifluoroethyl)benzamide], the figures for the IC50 in data set [1], in data set [2] and in data set [3] were no more than 1 nM, 1 to 10 nM and 6000 to 60000 nM, respectively. In addition, the fraction unbound at 2 h, 2 μM in data set [4] is greater than 0.05.
The like results for `O=C(NC1CC1)c1ccccc1Sc1ccc2c(/C=C/c3ccc(CCCN4CCCC4)cn3)n[nH]c2c1` [Compound I-59, N-cyclopropyl-2-({3-[(E)-2-{5-[3-(pyrrolidin-1-yl)propyl]pyridin-2-yl}vinyl]-1H-indazol-6-yl}thio)benzamide] were, in that order, no more than 1 nM, no more than 1 nM, 6000 to 60000 nM and 0.01 to 0.05.
